Test results reported in BindingDB's records for patent US11098029 (Merck Sharp & Dohme, 2021).

Target: T1, Orexin receptor type 2 (Homo sapiens, UniProt O43614)
T1 sequence (O43614 whole entry): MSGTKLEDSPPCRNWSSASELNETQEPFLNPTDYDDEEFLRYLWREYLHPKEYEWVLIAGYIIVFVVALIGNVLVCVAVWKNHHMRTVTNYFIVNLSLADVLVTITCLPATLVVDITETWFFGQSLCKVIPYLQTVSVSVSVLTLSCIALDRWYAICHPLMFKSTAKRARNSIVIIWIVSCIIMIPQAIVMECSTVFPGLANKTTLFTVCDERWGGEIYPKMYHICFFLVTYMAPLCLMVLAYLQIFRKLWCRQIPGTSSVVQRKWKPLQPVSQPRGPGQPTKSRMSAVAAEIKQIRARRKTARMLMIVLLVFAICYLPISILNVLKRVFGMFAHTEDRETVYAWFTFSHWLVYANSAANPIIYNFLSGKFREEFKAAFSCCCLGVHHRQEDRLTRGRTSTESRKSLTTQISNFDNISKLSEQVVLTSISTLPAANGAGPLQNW
Test: Receptor Activity Assay
Description: In a typical experiment, the OX1 and OX2 receptor agonist activity is determined in accordance with the following general experimental method.

Structure (SMILES)	IC50 [µM]
COC(=O)N1[C@H](C)C[C@H](NS(=O)(=O)N(C)CCS(C)(=O)=O)[C@@H]1COC1CCC(c2cccc(F)c2)CC1 (some centres not stated) [US11098029, Example 57]	0.0016
CC(C)C1CCC(OC[C@H]2[C@@H](NS(=O)(=O)N(C)C)C[C@@H](C)N2C(=O)OCC(F)F)CC1 (some centres not stated) [US11098029, Example 14]	0.0025
CCOC(=O)N1[C@H](C)C[C@H](NS(=O)(=O)N(C)C)[C@@H]1COC1CCC(C(C)C)CC1 (some centres not stated) [US11098029, Example 8]	0.00952
CC[C@@H]1C[C@H](NS(C)(=O)=O)[C@H](CO[C@H]2CC[C@@H](c3ccccc3)CC2)N1C(=O)OC (racemic) [US11098029, Example 43]	0.0081
CCNC(=O)N1[C@H](C)C[C@H](NS(C)(=O)=O)[C@@H]1COC1CCC(C(F)(F)F)CC1 (some centres not stated) [US11098029, Example 2]	0.117
CNS(=O)(=O)N[C@H]1C[C@@H](C)N(C(=O)OCC(F)F)[C@H]1COC1CCC(C(C)C)CC1 (some centres not stated) [US11098029, Example 13]	0.0019
COC(=O)N1[C@H](C)C[C@H](NS(C)(=O)=O)[C@@H]1COC1CCC(CC(F)(F)F)CC1 (some centres not stated) [US11098029, Example 12]	0.39
CC(C)C1CCC(OC[C@H]2[C@@H](NS(C)(=O)=O)C[C@@H](C)N2C(=O)OCCF)CC1 (some centres not stated) [US11098029, Example 10]	0.0693
CC(C)OC(=O)N1[C@H](C)C[C@H](NS(C)(=O)=O)[C@@H]1COC1CCC(C(C)C)CC1 (some centres not stated) [US11098029, Example 5]	0.227
COC(=O)N1[C@H](C)C[C@H](NS(=O)(=O)N(C)C)[C@@H]1COC1CCC(C(F)(F)F)CC1 (some centres not stated) [US11098029, Example 11]	0.264
COC(=O)N1[C@H](C)C[C@H](NS(C)(=O)=O)[C@@H]1COC1CCC(C(C)C)CC1 (some centres not stated) [US11098029, Example 3]	0.0193
CC(C)C1CCC(OC[C@H]2[C@@H](NS(C)(=O)=O)C[C@@H](C)N2C(=O)OCC(F)F)CC1 (some centres not stated) [US11098029, Example 9]	0.00857
